Consider 2 compounds from patent US9913801B2 (YOUR ENERGY SYSTEMS, LLC, priority 2013, dated 2018).

Test [1] has as its system Mycobacterium tuberculosis. The note with it: at 10 millimolar.
The conditions of test [2]: rat liver, cited from earlier work.

Molecules are shown by their SMILES. Like-named read-outs stand apart in the source and are kept apart here.

In the case of `CC(=O)N[C@@H](CS)C(=O)O` [NAC, N-Acetyl Cysteine], the “Mycobacterium tuberculosis CFU/ml” value in test [1] is reported as 8,000 CFU/ml.

Consider `N[C@@H](CCC(=O)N[C@@H](CS)C(=O)NCC(=O)O)C(=O)O` [Plain glutathione, glutathione], for which the removal of toxin in test [2] (intravenous) was 64%; in test [2] (oral), 0%.
